According to patent US20190388421A1, “NOVEL COMPOUNDS AND PHARMACEUTICAL COMPOSITIONS THEREOF FOR THE TREATMENT OF FIBROSIS” (Galapagos NV, priority 2016, published 2019):

Legend:
[1] = target: T1, human GPCR sphingosine 1-phosphate receptor 2 (S1PR2) (Homo sapiens, UniProt O95136); assay: S1P2 antagonist assay (Ca2+ flux, S1P at EC80); format: cell-based; settings: CHO-S1PR2 cells, highest concentration 20 μM
T1 construct: host or cells: CHO
Method in brief: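 CHO cells stably overexpressing human S1PR2, serum-starved 1 h and loaded with Fluo8 dye, were read for 3 min after compound addition, then stimulated with S1P at EC80 after 15 min at 37 °C. Top concentration 20 μM in a 10-point 1/3 series; Ca2+ fluorescence ratio normalized to vehicle and S1P EC80, giving EC50.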

[2] = target: T2, human GPCR sphingosine 1-phosphate receptor 1 (S1PR1) (Homo sapiens, UniProt P21453); assay: S1PR1 selectivity assay (Ca2+ flux, antagonist); format: cell-based; settings: S1P1 antagonist EC50, CHO cells overexpressing human S1PR1 and Gq protein
T2 construct: host or cells: CHO
Method in brief: (§1)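 CHO cells stably overexpressing human S1PR1 or S1PR5 with Gq were preincubated with compound 15 min at 37 °C, then stimulated with S1P at EC80 (S1PR1) or an S1PR5-specific agonist (S1PR5). Ca2+ fluorescence was read for 3 min; 10-point 1/3 dilutions from 20 μM final, normalized to vehicle and EC80 trigger, gave EC50.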

[3] = target: T3, human GPCR sphingosine 1-phosphate receptor 5 (S1PR5) (Homo sapiens, UniProt Q9H228); assay: S1PR5 selectivity assay (Ca2+ flux, antagonist, S1PR5 specific agonist trigger); format: cell-based; settings: S1P5 antagonist EC50, CHO cells overexpressing human S1PR5 and Gq protein
T3 construct: host or cells: CHO
Method in brief: as §1

S1PR2 = target: T4, S1PR2 (Homo sapiens, UniProt O95136); assay: GTP-γS binding assay ([35S]GTPγS, S1P at EC80, S1PR2 membranes); format: biochemical; settings: membranes from stable cell line over expressing S1PR2, read-out: S1PR2 EC
T4 construct: expressed in transfected cells
Method in brief: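 Compounds tested against S1P at its EC80 on membranes (2.5 μg/well) from a stable S1PR2-overexpressing line, pre-incubated with 1 μM GDP 15 min at 4 °C. Buffer: 20 mM Tris pH 7.5, 10 mM MgCl2, 100 mM NaCl, 0.1% fatty-acid-free BSA, 50 ug/ml saponin. Incubated 4 h at room temperature; [35S]GTPγS binding read by WGA SPA beads.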

HFL-1 cells [4] = assay: IL8 assay (S1P induced IL-8 production); format: cell-based; settings: Homo sapiens, HFL1; S1P (1 μM) induced IL-8, HFL-1 cells, without HSA
Method in brief: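 Serum-starved human fetal lung fibroblasts were preincubated with compound for 1 h at 37° C (10-point, 1/3 dilution, top 30 μM, 0.3% DMSO). S1P at 1 μM final was then added for 16–24 h, and IL-8 in the supernatant was measured by ELISA.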

HFL-1 cells [5] = assay: IL8 assay in the presence of Human Serum Albumin; format: cell-based; settings: HFL1, S1P (5 μM) induced IL-8, HFL-1 cells, with 2% HSA, read-out: HSA IL8 EC50
Method in brief: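 Cells serum-starved with 1.95% HSA, pre-treated 1 h with compound (10-point 1/3 dilution from 30 μM, 0.3% DMSO), then stimulated with 5 μM S1P for 16 to 24 h at 37° C. Supernatant IL-8 measured by ELISA.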

T3 sequence (Q9H228 whole entry): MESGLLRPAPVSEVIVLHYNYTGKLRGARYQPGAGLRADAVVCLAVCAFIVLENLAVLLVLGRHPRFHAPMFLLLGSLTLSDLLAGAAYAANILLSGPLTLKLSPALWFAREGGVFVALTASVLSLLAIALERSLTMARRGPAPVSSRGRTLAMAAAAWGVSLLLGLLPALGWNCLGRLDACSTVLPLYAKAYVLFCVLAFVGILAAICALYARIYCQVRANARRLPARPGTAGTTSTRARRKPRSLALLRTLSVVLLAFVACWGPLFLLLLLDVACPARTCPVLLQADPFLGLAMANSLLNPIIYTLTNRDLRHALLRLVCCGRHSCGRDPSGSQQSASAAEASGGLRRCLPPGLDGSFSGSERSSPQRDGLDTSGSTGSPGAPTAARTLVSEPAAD
T1 sequence (O95136 whole entry): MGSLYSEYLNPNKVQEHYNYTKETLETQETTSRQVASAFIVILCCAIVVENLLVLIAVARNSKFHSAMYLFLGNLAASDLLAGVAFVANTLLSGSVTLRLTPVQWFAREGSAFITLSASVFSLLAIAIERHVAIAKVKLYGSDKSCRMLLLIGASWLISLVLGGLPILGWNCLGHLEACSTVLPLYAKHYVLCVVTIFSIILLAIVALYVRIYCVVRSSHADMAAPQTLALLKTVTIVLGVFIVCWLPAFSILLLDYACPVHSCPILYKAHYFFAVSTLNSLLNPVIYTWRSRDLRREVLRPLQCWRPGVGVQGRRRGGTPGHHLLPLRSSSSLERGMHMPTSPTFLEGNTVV
T4 sequence (O95136 whole entry): as above
T2 sequence (P21453 whole entry): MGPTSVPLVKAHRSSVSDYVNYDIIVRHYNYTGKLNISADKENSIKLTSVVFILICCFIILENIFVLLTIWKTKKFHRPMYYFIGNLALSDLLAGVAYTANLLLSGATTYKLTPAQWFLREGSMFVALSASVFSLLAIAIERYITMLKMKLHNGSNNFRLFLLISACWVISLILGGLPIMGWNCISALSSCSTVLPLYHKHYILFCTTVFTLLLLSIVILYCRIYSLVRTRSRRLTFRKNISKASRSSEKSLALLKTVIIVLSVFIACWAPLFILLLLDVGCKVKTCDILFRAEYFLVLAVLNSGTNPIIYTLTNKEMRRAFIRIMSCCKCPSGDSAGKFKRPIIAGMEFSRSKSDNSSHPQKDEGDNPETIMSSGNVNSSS

SMILES	EC50 [1] [nM]	EC50 [2] [nM]	EC50 [3] [nM]	EC50 (S1PR2) [nM]	EC50 (HFL-1 cells [4]) [nM]	IC50 (HFL-1 cells [5]) [nM]
COCC(C)Oc1cc(NC(=O)NCc2cc(C)c(-c3cn(C)nc3C(F)(F)F)nn2)cc(C(F)(F)F)n1 (stereo not drawn) [Compound 41, 1-[2-(2-methoxy-1-methyl-ethoxy)-6-(trifluoromethyl)-4-pyridyl]-3-[[5-methyl-6-[1-methyl-3-(trifluoromethyl)pyrazol-4-yl]pyridazin-3-yl]methyl]urea]	101	≥ 19800	≥ 19800	542	48.9	597
CCOc1nc(C(F)(F)F)cc(NC(=O)NC(C)c2cc(C)c(-c3cn(C)nc3C(F)(F)F)nn2)c1C (stereo not drawn) [Compound 45, 1-[2-ethoxy-3-methyl-6-(trifluoromethyl)-4-pyridyl]-3-[1-[5-methyl-6-[1-methyl-3-(trifluoromethyl)pyrazol-4-yl]pyridazin-3-yl]ethyl]urea]	19.7	≥ 19800	6610	211	41.1	84.2
CCOc1nc(C(F)(F)F)cc(NC(=O)NCc2cc(C)c(-c3cn(C)nc3C(F)(F)F)nn2)c1CC [Compound 46, 1-[2-ethoxy-3-ethyl-6-(trifluoromethyl)-4-pyridyl]-3-[[5-methyl-6-[1-methyl-3-(trifluoromethyl)pyrazol-4-yl]pyridazin-3-yl]methyl]urea]	17.2	6610	6610	97	25.6	9950
Cc1cc(CNC(=O)Nc2cc(N3CC(F)(F)C3)nc(C(F)(F)F)c2)nnc1-c1cn(C)nc1C(F)(F)F [Compound 47]	9.3	6610	≥ 19800	34.5	4.6	42.4
CCOc1cc(NC(=O)NCc2cc(C)c(-c3cn(C4CCOC4)nc3C(F)(F)F)nn2)cc(C(F)(F)F)n1 (stereo not drawn) [Compound 52, 1-[2-ethoxy-6-(trifluoromethyl)-4-pyridyl)-3-[[5-methyl-6-[1-tetrahydrofuran-3-yl-3-(trifluoromethyl)pyrazol-4-yl]pyridazin-3-yl]methyl]urea]	11.4	5890	6620	70.2	7.8	79.3
CCOc1cc(NC(=O)NCc2cc(C)c(-c3cn(C)nc3C3CC3)nn2)cc(C(F)(F)F)n1 [Compound 54, 1-[[6-(3-cyclopropyl-1-methyl-pyrazol-4-yl)-5-methyl-pyridazin-3-yl]methyl]-3-[2-ethoxy-6-(trifluoromethyl)-4-pyridyl]urea]	15.3	2480	4580	151	11.6	278
CCOc1nc(C#N)cc(NC(=O)NCc2cc(C)c(-c3cn(C)nc3C(F)(F)F)nn2)c1C [Compound 57, 1-(6-cyano-2-ethoxy-3-methyl-4-pyridyl)-3-[[5-methyl-6-[1-methyl-3-(trifluoromethyl)pyrazol-4-yl]pyridazin-3-yl]methyl]urea]	7.6	6610	4620	24.4	0.9	17.3
Cn1cc(-c2nnc(CNC(=O)Nc3cc(Cl)nc(OCC(F)F)c3)cc2N2CC(F)(F)C2)c(C(F)(F)F)n1 [Compound 60, 1-[2-chloro-6-(2,2-difluoroethoxy)-4-pyridyl]-3-[[5-(3,3-difluoroazetidin-1-yl)-6-[1-methyl-3-(trifluoromethyl)pyrazol-4-yl]pyridazin-3-yl]methyl]urea]	3280	2800	6610	1520	166	4340

Continued, values first:

EC50 [1] [nM]	EC50 [2] [nM]	EC50 [3] [nM]	EC50 (S1PR2) [nM]	EC50 (HFL-1 cells [4]) [nM]	IC50 (HFL-1 cells [5]) [nM]	SMILES
27.1	5100	≥ 19800	154	23.9	104	Cc1cc(CNC(=O)Nc2cc(OCC(F)F)nc(N3CC(F)(F)C3)c2)nnc1-c1cn(C)nc1C(F)(F)F [Compound 48, 1-[2-(3,3-difluoroazetidin-1-yl)-6-(2,2-difluoroethoxy)-4-pyridyl]-3-[[5-methyl-6-[1-methyl-3-(trifluoromethyl)pyrazol-4-yl]pyridazin-3-yl]methyl]urea]
8	5920	3650	24.1	1.5	74	Cc1cc(CNC(=O)Nc2cc(Cl)nc(OCC(F)F)c2C)nnc1-c1cn(C)nc1C(F)(F)F [Compound 50, 1-[6-chloro-2-(2,2-difluoroethoxy)-3-methyl-4-pyridyl]-3-[[5-methyl-6-[1-methyl-3-(trifluoromethyl)pyrazol-4-yl]pyridazin-3-yl]methyl]urea]
10	4020	6610	52.4	6.6	51.2	CCOc1cc(NC(=O)NCc2cc(C)c(-c3cn(CCOC)nc3C(F)(F)F)nn2)cc(C(F)(F)F)n1 [Compound 53, 1-[2-ethoxy-6-(trifluoromethyl)-4-pyridyl]-3-[[6-[1-(2-methoxyethyl)-3-(trifluoromethyl)pyrazol-4-yl]-5-methyl-pyridazin-3-yl]methyl]urea]
16.9	≥ 19800	6610	338	35.8	179	CCOc1cc(NC(=O)NCc2cc(C)c(-c3cn(CC4COCCO4)nc3C(F)(F)F)nn2)cc(C(F)(F)F)n1 (stereo not drawn) [Compound 55, 1-[[6-[1-(1,4-dioxan-2-ylmethyl)-3-(trifluoromethyl)pyrazol-4-yl]-5-methyl-pyridazin-3-yl]methyl]-3-[2-ethoxy-6-(trifluoromethyl)-4-pyridyl]urea]
7.2	6610	5500	38.5	0.9	116	Cc1cc(CNC(=O)Nc2cc(C#N)nc(OCC(F)F)c2C)nnc1-c1cn(C)nc1C(F)(F)F [Compound 59, 1-(6-cyano-2-(2,2-difluoroethoxy)-3-methyl-4-pyridyl]-3-[[5-methyl-6-[1-methyl-3-(trifluoromethyl)pyrazol-4-yl]pyridazin-3-yl]methyl]urea]
66.8	2080	11000	298	55.4	829	CN(C)c1cc(CNC(=O)Nc2cc(Cl)nc(OCC(F)F)c2)nnc1-c1cn(C)nc1C(F)(F)F [Compound 63, 1-[2-chloro-6-(2,2-difluoroethoxy)-4-pyridyl]-3-[[5-(dimethylamino)-6-[1-methyl-3-(trifluoromethyl)pyrazol-4-yl]pyridazin-3-yl]methyl]urea]
8.5	1620	4380	48.7	16.6	119	COc1cc(CNC(=O)Nc2cc(Cl)nc(OCC(F)F)c2)nnc1-c1cn(C)nc1C(F)(F)F [Compound 64, 1-[2-chloro-6-(2,2-difluoroethoxy)-4-pyridyl]-3-[[5-methoxy-6-[1-methyl-3-(trifluoromethyl)pyrazol-4-yl]pyridazin-3-yl]methyl]urea]
